One may read the melting point as the temperature, or range, at which the solid turns liquid.

These results are taken from a melting point compilation (Tetko et al.; mined from patent text by program, amines drawn as free bases though some values may be those of a salt).

Compound `COc1ccc(-c2nnc(N3CCN(C)CC3)nc2-c2ccc(OC)cc2)cc1` showed a melting point of 158 to 160 °C.
For the compound `CCCCCCCCCCCCC(OC(C)=O)C1=CC(=O)OC1O` (stereo not drawn), the melting point was in the range of 67 to 68 °C.
As for `N#Cc1ccc(-c2ccc(-c3ccc(C#N)cc3)o2)cc1`, the figure is 294 to 295 °C; as for `COc1cccc2c(CC(=O)O)coc12`, 143 to 145 °C.
On to `Cc1cc(=O)[nH]c2ccc(C(O)(C(F)(F)F)C(F)(F)F)cc12`, for which the melting point lay within 157 to 158 °C.
In turn, `CC(=O)OC(c1ccccc1)C1CNC1=O` (stereo not drawn) returned a melting point of 96 to 97 °C.
`Cc1cccc2sc(-n3nc(CCC(=O)N(C)O)cc3-c3ccsc3)nc12` had a melting point of 142 to 143 °C.
The compound `COc1cc(CCCCC2OC(=O)NC2=O)ccc1OCc1coc(/C=C/c2ccc3ccccc3c2)n1` (stereo not drawn) yielded a melting point of 169 to 170 °C.
As for `CC(=O)N(c1ccc(C(F)(F)F)cc1)c1nccc(-c2cccc(Cl)c2)n1`, the figure is 129 to 130 °C; as for `COc1ccc(NC(=O)CCCCC(=O)Cc2ccccc2)cc1`, 131 to 132 °C.
Regarding `COC1(c2cc(F)cc(Sc3ccc(C(CO)=NO)cc3)c2)CCOCC1`, the melting point was in the range of 145 to 146 °C.
In turn, `CC(CCCC(O)(C(F)(F)F)C(F)(F)F)C1CCC2C3C=CC4=CC(=O)C=CC4(C)C3CCC12C` (stereo not drawn) had a melting point of 166 to 168 °C.
Next, `O=C(NO)[C@H](CNS(=O)(=O)c1ccc(OCc2ccccc2)cc1)N1CCCC1`: 186 °C; `Cc1nc2ccccc2n1C(C)(C)CO`: 180 to 181 °C; `C#CCNC(=O)c1nn(-c2c(Cl)cc(C(F)(F)F)cc2Cl)c(N)c1S(=O)C(F)(F)F` (stereo not drawn): 207 °C.
Take `CN(CCN(C)[C@H]1CC[C@H](c2ccc3[nH]c(=O)oc3c2)CC1)c1ccccc1`: the melting point is 240 to 243 °C.
In the case of `FC(F)(F)C1(c2cc(Cl)cc(Cl)c2)CC(c2ccc(CCl)cc2)=NO1` (stereo not drawn), the melting point is 98 to 100 °C.
As for `C=CC[C@H]1C(=O)N(S(=O)(=O)c2cc3ccccc3s2)[C@@H]2CCN(C(=O)OCc3ccccc3)[C@H]21` (relative stereo), the figure is 146 °C.
`Cc1nc(-c2ccsc2)c2nc(-c3ccccc3)cc-2[nH]1` showed a melting point of 232 to 233 °C.
As for `Cc1nc2cccc(N)c2c(=O)n1C1CCC(=O)NC1=O` (stereo not drawn), the figure is 293 to 295 °C; as for `N#CCC(=O)Nc1cc(N)ccc1[N+](=O)[O-]`, 218 to 220 °C; as for `Cc1ccc2cc(NS(C)(=O)=O)ccc2n1`, 151 to 153 °C.
Next, `COc1cccc(CNC(=O)c2cc3c(s2)N(C)CNC3)c1`: 279 to 281 °C; `O=C(O)c1ccc2cc(-c3ccc(OCC(O)CO)c(C45CC6CC(CC(C6)C4)C5)c3)ccc2c1` (stereo not drawn): 278 °C.
`OC1CSC(Oc2cnc(-c3cncnc3)c(F)c2)C(O)C1O` (stereo not drawn) gave a melting point of 192 °C.
Compound `CC(C)N1CC(c2cc(CCc3ccccc3)ncn2)=C(O)C1=O` came in with a melting point of 156 to 159 °C.
Next, `OCCCCCNc1nccc2cc3c(cc12)OCO3`: 132 to 134 °C.
Turning to `O=C1NCN(c2ccccc2)C12CCN(C[C@@H]1CCc3ccc(Cl)cc3[C@H]1O)CC2` (relative stereo), the melting point lay in the range of 248 to 249 °C.
`O=C(O)c1cn(-c2nccs2)c2nc(Cl)cc(Cl)c2c1=O` returned a melting point of 264 to 266 °C.
Consider `COC(=O)C(Oc1ccc(Cl)cc1)c1ccc(Oc2ccc(Cl)cc2)cc1` (stereo not drawn), for which the melting point was in the range of 100 to 102 °C.
On to `O=C(COc1ccccc1)NC(Cc1ccccc1)C(=O)NNc1ccccc1` (stereo not drawn), for which the melting point lay within 172 to 175 °C.
`CCCCN1C[C@@H](C(=O)O)N(C(=O)[C@H](C)CSC(=O)c2ccccc2)C1=O`: the melting point was determined as 119 °C.
`Cn1nc(-c2ccc(OC(F)(F)F)cc2)cc1CBr` showed a melting point of 70 to 71 °C.
With `Brc1ccc(-c2coc3ccc(-c4ccccc4)cc23)cc1`, the melting point fell in the range of 90 to 92 °C.
As for `COc1ccc2c(c1)c1c3c(c(-c4c(Cl)cccc4Cl)cc1n2CCC(=O)O)C(=O)NC3=O`, the figure is 203 to 209 °C; as for `OCCc1cc(Br)ccc1O`, 63 to 65 °C; as for `CC(C)(C)OC(=O)N1CCN(c2ncccc2C=O)CC1`, 88 to 89 °C.
`CCN1C(=O)CC(=O)N(CC)C1=O` showed a melting point of 52 °C.
The compound `Cc1ccccc1Nc1nc(N)nc2c(C)cccc12` displayed a melting point of 118 to 120 °C.
With `CCNC(=O)c1[nH]c2ccc(Cl)cc2c1S(=O)(=O)c1ccccc1`, the melting point was in the range of 259 to 260 °C.
In turn, `Clc1ccc(-c2nc(Br)cnc2OCC2CC2)cc1` displayed a melting point of 86 to 87 °C.
Next, `COC(=O)C1N2C(=O)C(N3C(=O)c4ccccc4C3=O)C2SCC1(C)O` (stereo not drawn): 203 °C.
In the case of `CCOC(=O)c1ncc(Cl)cc1N`, the melting point fell in the range of 140 to 142 °C.
In turn, `COc1ccc2c(c1)CC(=O)N2C` had a melting point of 93 to 94 °C.
As for `CC(C)NC(=O)OC1SCN(c2ccccc2)C1=O` (stereo not drawn), the melting point is 130 to 132 °C.
In turn, `Cc1cccc(OCC(=S)NCCN2CCCC2)c1C` came in with a melting point of 62 to 64 °C.
As to `CCn1cc(C(=O)O)c(=O)c2cc(F)c(N3CC(C)(N)C3)cc21`, the melting point was 280 to 283 °C.
Consider `CCCCc1nn(-c2cc(NC(=O)OCCC)ccc2Cl)c(=O)n1Cc1ccc(-c2ccccc2S(=O)(=O)NC(=O)c2ccccc2Cl)cc1`, for which the melting point is more than 119 °C.
As for `CC(c1oc2ccccc2c(=O)c1-c1ccccc1F)n1cnc2c(N)ncnc21` (stereo not drawn), the figure is 247 to 250 °C; as for `Fc1ccc(-c2[nH]nc(Nc3ccccc3)c2-c2ccncc2)cc1`, 218 to 219 °C.
On to `COC(=O)c1cc(C(=O)N[C@@H](Cc2ccccc2)[C@H]2CN(C3(c4cccc(C(F)(F)F)c4)CC3)C(=O)O2)n2c1CN(S(C)(=O)=O)CC2`, for which the melting point was determined as 104 °C.
As for `COc1cc(Nc2nc3cccc(-c4ccc(S(N)(=O)=O)cc4)c3o2)cc(OC)c1OC`, the figure is 247 to 252 °C; as for `c1cn(CCCc2ccc(OCc3coc(-c4ccoc4)n3)cc2)cn1`, 85 to 87 °C; as for `Cc1nc2cc(-c3cccc(C=C4SC(=O)NC4=O)c3)cc(C34CC5CC(CC(C5)C3)C4)c2o1`, 355 to 358 °C.
In turn, `CCSc1cn(C)cc(-c2cccc(C(F)(F)F)c2)c1=O` registered a melting point of 84 to 85 °C.
`COc1cc(NC(=O)C2C(=O)N(C)C(=S)N(C)C2=O)ccc1Oc1ccc(C(F)(F)F)cc1Cl` showed a melting point of 178 to 182 °C.
As for `COc1ccc(-c2nc(CCCCCC(C#N)C(=O)O)oc2-c2ccc(OC)cc2)cc1` (stereo not drawn), the figure is 150 °C.
Next, `CC(C)(C)c1cc(C(=O)c2cccs2)cc2c1OCC2(C)C`: 103 to 105 °C; `COc1c(C(O)CNC(C)(C)Cc2c(C)cc(C)cc2C)ccc(O)c1O` (stereo not drawn): 98 to 105 °C.
Next, `COc1cc(-c2c3c(cc4ccc5c(c24)OCO5)C(=O)NC3)ccc1OCc1ccccc1`: 236 to 239 °C; `c1ccc(CN2CCC3(CC2)OCc2ccccc23)cc1`: 67 to 68.5 °C; `C=C1CC2(C)CC(=O)C(C)(C)C12` (stereo not drawn): -23 to -20 °C.
As for `CCOC(=O)c1c[nH]c(=O)s1`, the melting point stood at 127 °C.
